Assay results from patent publication US20190127314A1, “HOMOVANILLIC ACID ESTER FOR REDUCING OR INHIBITING FATTY ACID ABSORPTION IN THE SMALL INTESTINE” (SYMRISE AG, priority 2016, published 2019).

System: differentiated Caco-2-cells
Assay: Intestinal fatty acid resorption, QBT Fatty Acid Uptake Kit (BODIPY-dodecanoic acid)
Assay type: cell-based
Details: Homo sapiens, fatty acid resorption AUC as percent of the vehicle treated control, 30 min preincubation, fluorescence measured over 1 h; for activity at 1 µM: 1 μM substance; for activity at 100 µM: 100 μM substance
Source text: The ability of modulating the fatty acid resorption/absorption (as described in the scope of the present invention) of a substance or substance mixture can be determined or, respectively, evaluated e.g. according to the method described herein, by using Caco-2-cells (s. also the example section of the present text). Preferably, in the scope of the present text it is to be assumed that substances reducing or, respectively, inhibiting the fatty acid resorption (preferably when performing the method described herein, s. example section) are also suitable for the uses or, respectively, applications according to the invention and described herein. Preferably, the human colon cell line Caco-2 (ATCC-number HTB-37) is used, after differentiation to a phenotype related to entereocytes, as cell model for the resorption of free fatty acids into the small intestine. (Caco-2-cells are preferably cultivated at 37° C. and 5% CO2 content with Dulbecco's Modified Eagles Medium (DMEM) with 10% FBS, 2% L-Glutamine and 1% Penicillin/Streptomycin. The differentiation to enterocytes is preferably performed by an 18-days cultivation of the cells after reaching confluence.)
The resorption of free fatty acids in differentiated Caco-2-cells was analysed with the QBT Fatty Acid Uptake Kit (Molecular Devices Corporation, Germany), which uses the fluorescent fatty acid analogue BODIPY-dodecanoic acid. For preparing the assay, the differentiated Caco-2-cells are subjected to a one hour incubation in serum-free medium at standard cell culture conditions of a hunger phase. Subsequently, the test substances were added at 1 or 100 μM, diluted in Hank's balanced salt solution (HBSS of Lonza, Biozym-order number 882010)-buffer, treated with 20 mM HEPES (diluted from a 1M solution of Gibco, Thermo Fisher-order number 15630056) (in the following described as HBSS/HEPES-buffer). Controls were only treated with HBSS/HEPES-buffer. After a 30 minute preincubation at 37° C., the fluorescent fatty acid analogue was added, which was diluted in HBSS/HEPES-buffer (supplemented with 0.2% fatty acid free BSA [Sigma Aldrich, Germany]). The fluorescence signals were measured after excitation with 485 nm at an emission wavelength of 515 nm during a time of 1 h in a microtiter plate-reader (Synergy; BioTek, Germany). Starting from a time-signal-intensity curve resulting from the measurement, the area under the curve (AUC) was calculated to determine the cellular fatty acid resorption after treatment with the substances. The results obtained thereby are indicated as percent related to the control treatment (s. table 1).
Table 1: Results of the measurement of the inhibition of the fatty acid resorption in Caco-2-cells. The calculated area under the curve (AUC) is shown for tests at each 1 and 100 μM substance used (as percent of the vehicle treated control).
With the test for measurement shown in example 2, in total 25 compounds of formula (I) (as described herein) were measured for their inhibitory activity regarding the fatty acid resorption in Caco-2-cells for each two concentrations (1 and 100 μM) in triple determination. The obtained activity data was subsequently used for a structure-effect-analysis by using the software-package StarDrop (Optibrium Ltd) and Vortex (Dotmatics Ltd.). Thereby, an R-group analysis with the basic structure according to formula (II) was performed.

| Structure (SMILES) | activity at 1 µM [%] | activity at 100 µM [%] |
| --- | --- | --- |
| COc1cc(CC(=O)OCCc2ccccc2)ccc1O [Compound 1, 2-Phenylethyl-2-(4-hydroxy-3-methoxy-phenyl)acetate] | 103 | 103 |
| COc1cc(CC(=O)OC/C=C/c2ccccc2)ccc1O [Compound 2, [(E)-Cinnamyl]-2-(4-hydroxy-3-methoxy-phenyl)acetate] | 97.6 | 94.6 |
| CCCC(CC)OC(=O)Cc1ccc(O)c(OC)c1 (stereo not drawn) [Compound 3, 1-Ethylbutyl-2-(4-hydroxy-3-methoxy-phenyl)acetate] | 87.1 | 62.5 |
| COc1cc(CC(=O)OCC=C(C)C)ccc1O [Compound 4, 3-Methylbut-2-enyl-2-(4-hydroxy-3-methoxy-phenyl)acetate] | 101 | 80.9 |
| CCC/C=C/COC(=O)Cc1ccc(O)c(OC)c1 [Compound 5, [(E)-Hex-2-enyl]-2-(4-hydroxy-3-methoxy-phenyl)acetate] | 101 | 96.5 |
| CC/C=C\CCOC(=O)Cc1ccc(O)c(OC)c1 [Compound 6, [(Z)-Hex-3-enyl]-2-(4-hydroxy-3-methoxy-phenyl)acetate] | 99.9 | 90.4 |
| COc1cc(CC(=O)OC(C)C)ccc1O [Compound 7, Isopropyl-2-(4-hydroxy-3-methoxy-phenyl)acetate] | 91.6 | 61.6 |
| CCC(C)OC(=O)Cc1ccc(O)c(OC)c1 (stereo not drawn) [Compound 8, sec-Butyl-2-(4-hydroxy-3-methoxy-phenyl)acetate] | 92 | 61.9 |
| COc1cc(CC(=O)OCC(C)C)ccc1O [Compound 9, Isobutyl-2-(4-hydroxy-3-methoxy-phenyl)acetate] | 100 | 68 |
| COc1cc(CC(=O)OCCC(C)C)ccc1O [Compound 10, Isopentyl-2-(4-hydroxy-3-methoxy-phenyl)acetate] | 99.8 | 82.7 |
| CCC(C)COC(=O)Cc1ccc(O)c(OC)c1 (stereo not drawn) [Compound 11, 2-Methylbutyl-2-(4-hydroxy-3-methoxy-phenyl)acetate] | 99 | 79 |
| CCCCC(C)OC(=O)Cc1ccc(O)c(OC)c1 (stereo not drawn) [Compound 12, 1-Methylpentyl-2-(4-hydroxy-3-methoxy-phenyl)acetate] | 89.5 | 53.3 |
| CCCCCCCOC(=O)Cc1ccc(O)c(OC)c1 [Compound 13, Heptyl-2-(4-hydroxy-3-methoxy-phenyl)acetate] | 103 | 92.7 |
| CCCCCC(C)OC(=O)Cc1ccc(O)c(OC)c1 (stereo not drawn) [Compound 14, 1-Methyl hexyl-2-(4-hydroxy-3-methoxy-phenyl)acetate] | 93.4 | 67.5 |
| COc1cc(CC(=O)O[C@@H]2C[C@H](C)CC[C@H]2C(C)C)ccc1O [Compound 15, (2-Isopropyl-5-methyl-cyclohexyl)-2-(4-hydroxy-3-methoxy-phenyl)acetate] | 95.5 | 58.1 |
| CCOC(=O)Cc1ccc(O)c(OC)c1 [Compound 16, Ethyl-2-(4-hydroxy-3-methoxy-phenyl)acetate] | 105 | 93.8 |
| CCCOC(=O)Cc1ccc(O)c(OC)c1 [Compound 17, Propyl-2-(4-hydroxy-3-methoxy-phenyl)acetate] | 101 | 89.7 |
| CCCCOC(=O)Cc1ccc(O)c(OC)c1 [Compound 18, Butyl-2-(4-hydroxy-3-methoxy-phenyl)acetate] | 102 | 90.7 |
| CCCCCOC(=O)Cc1ccc(O)c(OC)c1 [Compound 19, Pentyl-2-(4-hydroxy-3-methoxy-phenyl)acetate] | 101 | 92.9 |
| CCCCCCOC(=O)Cc1ccc(O)c(OC)c1 [Compound 20, Hexyl-2-(4-hydroxy-3-methoxy-phenyl)acetate] | 102 | 91.4 |
| CCC(CC)COC(=O)Cc1ccc(O)c(OC)c1 [Compound 23, 2-Ethylbutyl-2-(4-hydroxy-3-methoxy-phenyl)acetate] | 99.7 | 62.1 |
